Source: ChEMBL document CHEMBL3608273, “Discovery of Biaryl Amides as Potent, Orally Bioavailable, and CNS Penetrant RORγt Inhibitors” (ACS Med Chem Lett, 2015)

What was measured:
[1] = Inhibition of Th17 cell differentiation in mouse CD4-positive T cells incubated for 3 days by ELISA method; details: Th17, 72 h, read-out: pIC50 (converted)
Mus musculus [2] = species: Mus musculus; details: C57BL/6 (B6), 1 to 10 mg/kg
Description: Inhibition of disease severity in C57BL/6 (B6) mouse model of experimental autoimmune encephalomyelitis at 1 to 10 mg/kg, po qd dosed starting from day of immunization

[3] = AUC (0 to 4 hrs) in C57BL/6 mouse brain at 2 mg/kg, ip by LC/MS/MS method; type: ADME, organism-based; design: time < 4 hr, dose 2 mg/kg, route intraperitoneal
[4] = AUC (0 to 4 hrs) in C57BL/6 mouse blood at 2 mg/kg, ip by LC/MS/MS method; type: ADME, organism-based; design: time < 4 hr, dose 2 mg/kg, route intraperitoneal
Mus musculus [5] = assay: Dose normalized AUC (0 to infinity) in C57BL/6 mouse at 10 mg/kg, po by LC/MS/MS method; type: ADME, organism-based; details: in vivo
[6] = target: T1, Nuclear receptor ROR-gamma (Homo sapiens, UniProt P51449); assay: Inhibition of RORgammat (unknown origin) assessed as inhibition of agonist-induced response by FRET assay
T1 sequence (P51449 whole entry): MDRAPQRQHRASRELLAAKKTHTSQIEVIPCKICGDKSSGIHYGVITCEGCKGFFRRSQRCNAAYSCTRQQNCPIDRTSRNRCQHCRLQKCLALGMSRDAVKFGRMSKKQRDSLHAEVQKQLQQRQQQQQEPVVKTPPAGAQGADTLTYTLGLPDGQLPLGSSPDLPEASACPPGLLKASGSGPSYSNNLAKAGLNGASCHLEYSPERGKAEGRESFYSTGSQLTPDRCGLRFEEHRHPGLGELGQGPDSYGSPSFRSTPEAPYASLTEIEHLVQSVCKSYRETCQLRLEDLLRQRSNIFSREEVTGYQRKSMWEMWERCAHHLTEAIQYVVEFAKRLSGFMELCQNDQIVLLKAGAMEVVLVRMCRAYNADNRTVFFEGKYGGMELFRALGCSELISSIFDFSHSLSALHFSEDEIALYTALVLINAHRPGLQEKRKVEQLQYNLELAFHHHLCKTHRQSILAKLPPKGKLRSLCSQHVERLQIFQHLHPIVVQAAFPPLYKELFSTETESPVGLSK

[7] = Half life in C57BL/6 mouse at 1 mg/kg, ip by LC/MS/MS method; type: ADME, organism-based; details: in vivo
Mus musculus [8] = assay: Dose normalized AUC (0 to infinity) in C57BL/6 mouse at 2 mg/kg, po by LC/MS/MS method; type: ADME, organism-based; details: in vivo
[9] = Blood clearance in C57BL/6 mouse at 1 mg/kg, ip by LC/MS/MS method; type: ADME, organism-based
[10] = Oral bioavailability in C57BL/6 mouse at 2 mg/kg by LC/MS/MS method; type: ADME, organism-based; details: in vivo
[11] = Cmax in C57BL/6 mouse at 2 mg/kg, po by LC/MS/MS method; type: ADME, organism-based; design: dose 2 mg/kg, route oral; details: in vivo
Mus musculus [12] = assay: Volume of distribution at steady state in C57BL/6 mouse at 1 mg/kg, ip by LC/MS/MS method; type: ADME, organism-based; details: in vivo
[13] = Ratio of AUC (0 to 4 hrs) in brain to blood of C57BL/6 mouse at 2 mg/kg, ip by LC/MS/MS method; type: ADME, organism-based

## CCS(=O)(=O)c1ccc(CC(=O)Nc2ccc(-c3ccccc3Cl)c(Cl)c2)cc1
[1]
  IC50: 1000 nM

## CCS(=O)(=O)c1ccc(CC(=O)Nc2cc(Cl)c(-c3ccccc3OC(F)(F)F)c(C#N)c2)cc1
[1]
  IC50: 31.6 nM

## Cc1cc(NC(=O)Cc2ccc(S(C)(=O)=O)cc2)ccc1-c1ccc(Cl)cc1OC(F)(F)F
[1]
  IC50: 63.1 nM
Mus musculus [2]
  inhibition: Dose-dependent effect
[3]
  AUC(0-t) at 4 h: 3520 ng·h/mL
[4]
  AUC(0-t) at 4 h: 2400 ng·h/mL
Mus musculus [5]
  AUC/dose: 4048 ng·h/mL/mg/kg

## CCS(=O)(=O)c1ccc(CC(=O)Nc2ccc(-c3ccccc3OC(F)(F)F)c(C(F)(F)F)c2)cc1
[1]
  IC50: 126 nM

## CCS(=O)(=O)c1ccc(CC(=O)Nc2ncc(-c3cc(Cl)ccc3Cl)s2)cc1
[6]
  IC50: > 25100 nM

## NS(=O)(=O)c1ccc(CC(=O)Nc2cc(Cl)c(-c3ccccc3OC(F)(F)F)c(Cl)c2)cc1
[1]
  IC50: 7.94 nM
[3]
  AUC(0-t) at 4 h: 388 ng·h/mL
[4]
  AUC(0-t) at 4 h: 4880 ng·h/mL

## CCS(=O)(=O)c1ccc(CC(=O)Nc2ccc(-c3ccccc3OC(F)(F)F)cc2)cc1
[1]
  IC50: 158 nM

## CCS(=O)(=O)c1ccc(CC(=O)Nc2cc(Cl)c(-c3ccc(F)cc3C#N)c(Cl)c2)cc1
[1]
  IC50: 158 nM
[3]
  AUC(0-t) at 4 h: 76 ng·h/mL
[4]
  AUC(0-t) at 4 h: 1380 ng·h/mL

## CCS(=O)(=O)c1ccc(CC(=O)Nc2cc(Cl)c(-c3ccccc3OC(F)(F)F)c(Cl)c2)cc1
[3]
  AUC(0-t) at 4 h: 946 ng·h/mL
[4]
  AUC(0-t) at 4 h: 1220 ng·h/mL

## CCS(=O)(=O)c1ccc(CC(=O)Nc2ccc(-c3ccccc3)cc2)cc1
[1]
  IC50: > 10000 nM

## CCS(=O)(=O)c1ccc(CC(=O)Nc2cccc(-c3cc(Cl)ccc3Cl)n2)cc1
[6]
  IC50: > 25100 nM

## CCS(=O)(=O)c1ccc(CC(=O)Nc2ccc(-c3ccccc3OC(F)(F)F)c(C)c2)cc1
[1]
  IC50: 25.1 nM

## CCS(=O)(=O)c1ccc(CC(=O)Nc2ccc(-c3ccccc3OC(F)(F)F)nc2)cc1
[1]
  IC50: 7940 nM

## CCS(=O)(=O)c1ccc(CC(=O)Nc2ccc(-c3ccccc3OC(C)C)c(Cl)c2)cc1
[1]
  IC50: 79.4 nM

## CCS(=O)(=O)c1ccc(CC(=O)Nc2ccc(-c3ccccc3C(F)(F)F)c(Cl)c2)cc1
[1]
  IC50: 200 nM
[7]
  half-life: 2.2 h
Mus musculus [8]
  AUC/dose: 713 ng·h/mL/mg/kg
[9]
  CL/F: 17.6 mL/min/kg
[10]
  bioavailability: 75%
[11]
  Cmax: 211 ng/mL
Mus musculus [12]
  Vdss: 3.2 L/kg

## CCS(=O)(=O)c1ccc(CC(=O)Nc2ccc(-c3ncccc3C(F)(F)F)c(Cl)c2)cc1
[1]
  IC50: > 5010 nM

## CCS(=O)(=O)c1ccc(CC(=O)Nc2ccc(-c3ccc(Cl)cc3OC(F)(F)F)c(Cl)c2)cc1
[1]
  IC50: 7.94 nM
[3]
  AUC(0-t) at 4 h: 1760 ng·h/mL
[4]
  AUC(0-t) at 4 h: 881 ng·h/mL

## CCS(=O)(=O)c1ccc(CC(=O)Nc2ccc(-c3ccccc3CN(C)C)c(Cl)c2)cc1
[1]
  IC50: > 10000 nM

## CCS(=O)(=O)c1ccc(CC(=O)Nc2ccc(-c3ccccc3OC(F)(F)F)c(C(C)=O)c2)cc1
[1]
  IC50: 2510 nM

## CCS(=O)(=O)c1ccc(CC(=O)Nc2ccc(-c3ccccc3OC(F)(F)F)c(-c3cncnc3)c2)cc1
[1]
  IC50: < 31.6 nM

## CCS(=O)(=O)c1ccc(CC(=O)Nc2cc(Cl)c(-c3ccccc3OC(F)F)c(Cl)c2)cc1
[1]
  IC50: 10 nM
[3]
  AUC(0-t) at 4 h: 462 ng·h/mL
[4]
  AUC(0-t) at 4 h: 1180 ng·h/mL

## CCS(=O)(=O)c1ccc(CC(=O)Nc2ccc(-c3ccccc3OC(F)(F)F)c(C(=O)O)c2)cc1
[1]
  IC50: > 10000 nM

## CS(=O)(=O)c1ccc(CC(=O)Nc2cc(Cl)c(-c3ccccc3OC(F)(F)F)c(Cl)c2)cc1
[7]
  half-life: 9.7 h
[3]
  AUC(0-t) at 4 h: 658 ng·h/mL
[4]
  AUC(0-t) at 4 h: 835 ng·h/mL
Mus musculus [8]
  AUC/dose: 2465 ng·h/mL/mg/kg
[9]
  CL/F: 5.5 mL/min/kg
[10]
  bioavailability: 100%
[11]
  Cmax: 214 ng/mL
Mus musculus [12]
  Vdss: 4.4 L/kg

## CCS(=O)(=O)c1ccc(CC(=O)Nc2nnc(-c3cc(Cl)ccc3Cl)s2)cc1
[6]
  IC50: > 25100 nM

## CS(=O)(=O)c1ccc(CC(=O)Nc2ccc(-c3ccc(Cl)cc3OC(F)(F)F)c(F)c2)cc1
[1]
  IC50: 50.1 nM
[3]
  AUC(0-t) at 4 h: 2350 ng·h/mL
[4]
  AUC(0-t) at 4 h: 2020 ng·h/mL

## CCS(=O)(=O)c1ccc(CC(=O)Nc2ccc(-c3ccccc3)c(Cl)c2)cc1
[1]
  IC50: 6310 nM

## CCS(=O)(=O)c1ccc(CC(=O)Nc2nc(-c3cc(Cl)ccc3Cl)cs2)cc1
[13]
  Kp: 1.5

## CCS(=O)(=O)c1ccc(CC(=O)Nc2ccc(-c3ccccc3OC(F)(F)F)c(-c3ccno3)c2)cc1
[1]
  IC50: 63.1 nM

## CCS(=O)(=O)c1ccc(CC(=O)Nc2cc(C)c(-c3ccccc3OC(F)(F)F)c(Cl)c2)cc1
[1]
  IC50: < 3.16 nM

## CCS(=O)(=O)c1ccc(CC(=O)Nc2cc(Cl)c(-c3ccccc3C#N)c(Cl)c2)cc1
[1]
  IC50: 79.4 nM
[3]
  AUC(0-t) at 4 h: 200 ng·h/mL
[4]
  AUC(0-t) at 4 h: 1930 ng·h/mL

## CS(=O)(=O)c1ccc(CC(=O)Nc2ccc(-c3ccc(Cl)cc3OC(F)(F)F)c(Cl)c2)cc1
[1]
  IC50: 25.1 nM
[3]
  AUC(0-t) at 4 h: 1700 ng·h/mL
[4]
  AUC(0-t) at 4 h: 1730 ng·h/mL

## CCS(=O)(=O)c1ccc(CC(=O)Nc2ccc(-c3cccn3C)c(Cl)c2)cc1
[1]
  IC50: > 6310 nM

## CCS(=O)(=O)c1ccc(CC(=O)Nc2ccc(-c3ccccc3OC(F)(F)F)c(Cl)c2)cc1
[1]
  IC50: 79.4 nM
[7]
  half-life: 4.2 h
Mus musculus [8]
  AUC/dose: 1313 ng·h/mL/mg/kg
[9]
  CL/F: 11.6 mL/min/kg
[10]
  bioavailability: 102%
[11]
  Cmax: 203 ng/mL
Mus musculus [12]
  Vdss: 3.8 L/kg
